Source: patent US11825838B2, “Tricyclic carboxamides for controlling arthropods” (Bayer CropScience Aktiengesellschaft, priority 2017, dated 2023)

How the values were obtained:
Assay type in all cases: in vivo
[1] = test system: Boophilus microplus; experiment: Boophilus microplus injection test; settings: application rate 20 μg/animal, assessed after 7 days by laying of fertile eggs
Protocol: Boophilus microplus—Injection Test
(§1) Solvent: dimethyl sulfoxide
To produce a suitable active compound preparation, 10 mg of active compound are mixed with 0.5 ml of solvent and the concentrate is diluted to the desired concentration with solvent.
1 μl of the active ingredient solution is injected into the abdomen of 5 engorged adult female cattle ticks (Boophilus microplus). The animals are transferred into dishes and kept in a climate-controlled room.
Efficacy is assessed after 7 days by laying of fertile eggs. Eggs which are not visibly fertile are stored in a climate-controlled cabinet until the larvae hatch after about 42 days. An efficacy of 100% means that none of the ticks has laid any fertile eggs; 0% means that all the eggs are fertile.

[2] = test system: Lucilia cuprina; experiment: Lucilia cuprina test; settings: application rate 100 ppm, L1 larvae, after 2 days
Protocol: as §1
To produce a suitable active ingredient formulation, 10 mg of active ingredient are mixed with 0.5 ml of dimethyl sulfoxide, and the concentrate is diluted with water to the desired concentration.
About 20 L1 larvae of the Australian sheep blowfly (Lucilia cuprina) are transferred into a test vessel containing minced horsemeat and the active compound preparation of the desired concentration.
After 2 days, the rate of extermination in % is determined. 100% means that all the larvae have been killed; 0% means that no larvae have been killed.

[3] = test system: Phaedon cochleariae; experiment: Phaedon cochleariae spray test (PHAECO)
Protocol: Phaedon cochleariae—Spray Test
(§2) To produce a suitable active ingredient formulation, 1 part by weight of active ingredient is dissolved with the specified parts by weight of solvent and made up to the desired concentration with water containing an emulsifier concentration of 1000 ppm. To produce further test concentrations, the formulation is diluted with emulsifier-containing water.
After 7 days, the efficacy in % is determined. 100% means that all the beetle larvae have been killed; 0% means that no beetle larvae have been killed.
Phaedon cochleariae—Spray Test (PHAECO)
as §2, with “compound” for “ingredient”
Discs of Chinese cabbage leaves (Brassica pekinensis) are sprayed with an active compound formulation of the desired concentration and, after drying, populated with larvae of the mustard beetle (Phaedon cochleariae).
After the desired time, the efficacy in % is determined. 100% means that all the beetle larvae have been killed; 0% means that no beetle larvae have been killed.

[4] = test system: Spodoptera frugiperda; experiment: Spodoptera frugiperda spray test (SPODFR)
Protocol: Spodoptera frugiperda—Spray Test
as §2
Leaf discs of maize (Zea mays) are sprayed with an active ingredient formulation of the desired concentration and, after drying, populated with caterpillars of the armyworm (Spodoptera frugiperda).
After 7 days, the efficacy in % is determined. 100% means that all the caterpillars have been killed; 0% means that no caterpillar has been killed.
Spodoptera frugiperda—Spray Test (SPODFR)
as §2, with “compound” for “ingredient”
Leaf discs of maize (Zea mays) are sprayed with an active compound formulation of the desired concentration and, after drying, populated with caterpillars of the armyworm (Spodoptera frugiperda).
After the desired time, the efficacy in % is determined. 100% means that all the caterpillars have been killed; 0% means that no caterpillar has been killed.

[5] = test system: Anopheles gambiae strain RSPH (homozygot kdr); experiment: Anopheles test (ANPHGB surface treatment); settings: application rate 100 mg/m^2, glazed tile, exposure 30 minutes, 24 hours after contact, read-out: efficacy (mortality)
Protocol: Anopheles Test (ANPHGB Surface Treatment)
(§3) Solvent: acetone+2000 ppm rapeseed oil methyl ester (RME)
(§4) To produce a suitable active compound formulation, the active compound is dissolved in the solvent (2 mg/ml). The active compound formulation is pipetted onto a glazed tile and, after it has dried off, adult mosquitoes of the species Anopheles gambiae strain RSPH (homozygot kdr) are placed onto the treated tile. The exposure time is 30 minutes.
(§5) 24 hours after contact with the treated surface, mortality in % is determined. 100% means that all mosquitoes have been killed; 0% means that none of the mosquitoes have been killed.

[6] = test system: Anopheles funestus strain FUMOZ-R; experiment: Anopheles test (ANPHFU surface treatment); settings: application rate 100 mg/m^2, glazed tile, exposure 30 minutes, 24 hours after contact, read-out: efficacy (mortality)
Protocol: Anopheles Test (ANPHFU Surface Treatment)
as §3
as §4, with “funestus” for “gambiae”, “FUMOZ-R (Hunt et al., Med Vet Entomol. 2005 September; 19(3):271-5)” for “RSPH (homozygot kdr)”
as §5

[7] = test system: Aedes aegypti strain MONHEIM; experiment: Aedes test (AEDSAE surface treatment); settings: application rate 100 mg/m^2, glazed tile, exposure 30 minutes, 24 hours after contact, read-out: efficacy (mortality)
Protocol: Aedes Test (AEDSAE Surface Treatment)
as §3
as §4, with “Aedes aegypti” for “Anopheles gambiae”, “MONHEIM” for “RSPH (homozygot kdr)”
as §5

[8] = test system: Myzus persicae; experiment: Myzus persicae oral test; settings: application rate 4 ppm, after 5 days
Protocol: To produce a suitable active compound preparation, 1 part by weight of active compound is dissolved with the specified amounts by weight of solvent and made up to the desired concentration with water.
50 ul of the active compound preparation are transferred to microtiter plates and made up to a final volume of 200 μl with 150 μl of IPL41 insect medium (33%+15% sugar). Then the plates are sealed with parafilm through which a mixed population of the green peach aphid (Myzus persicae), which is located in a second microtiter plate, can pierce and absorb the solution.
After 5 days, the efficacy in % is determined. 100% means that all the aphids have been killed; 0% means that no aphids have been killed.

[9] = application rate 100 g/ha, spray, after 7 days

Compound | efficacy [1] | efficacy (rate of extermination) [2] | Emax at 100 g/ha ([3]; Phaedon cochleariae, 168 h, PHAECO, 100 g ai/ha, 7 dat, read-out: % efficacy dat) | pest or weed control at 100 g/ha ([3]; Phaedon cochleariae, 168 h, application rate 100 g/ha, spray, after 7 days, read-out: efficacy) | Emax at 100 g/ha ([4]; Spodoptera frugiperda, 168 h, SPODFR, 100 g ai/ha, 7 dat, read-out: % efficacy dat) | pest or weed control at 100 g/ha ([4]; Spodoptera frugiperda, 168 h, application rate 100 g/ha, spray, after 7 days, read-out: efficacy) | mortality at 100 mg/m2 [5] | mortality at 100 mg/m2 [6] | mortality at 100 mg/m2 [7] | efficacy [8] | efficacy [3, 9] | efficacy [4, 9]
O=C(NC1CC1)c1cc(-c2cnn(-c3c(Cl)cc(C(F)(C(F)(F)F)C(F)(F)F)cc3Cl)c2)sc1Br [I-T1-1] | 100% | 100% | 100% | 100% | 100% | 100% | 80 to 100% | 80 to 100% | 80 to 100% | – | – | –
Cc1sc(-c2cnn(-c3c(Cl)cc(C(F)(C(F)(F)F)C(F)(F)F)cc3Cl)c2)cc1C(=O)NC1CC1 [I-T1-11] | 100% | 100% | – | – | – | – | – | – | – | 90% | 100% | 100%
